From ChEMBL document CHEMBL3045011, “Synthesis and Herbicidal Activities of 2-(5-Isoxazolyloxy)-acetamide Derivatives” (J Pestic Sci, 1998) come the findings set out here.

Holding throughout (assay type): functional, organism-based
In test [1] the test system is Echinochloa crus-galli. Description: Herbicidal activity against Echinochloa crus-galli (barnyard grass) assessed as seedling death under green house at 0.5 kg/ha at 25 degC measured after 4 weeks.
Test [2] concerns Echinochloa crus-galli. Put plainly: Herbicidal activity against Echinochloa crus-galli (barnyard grass) assessed as seedling death under green house at 1 kg/ha at 25 degC measured after 4 weeks.
For test [3], the system named is Digitaria ciliaris. Put plainly: Herbicidal activity against Digitaria ciliaris assessed as seedling death under green house at 1 kg/ha at 25 degC measured after 4 weeks.
The test system of test [4] is Digitaria ciliaris. Description: Herbicidal activity against Digitaria ciliaris assessed as seedling death under green house at 0.5 kg/ha at 25 degC measured after 4 weeks.
Test [5] concerns Amaranthus viridis. Description: Herbicidal activity against Amaranthus viridis assessed as seedling death under green house at 1 kg/ha at 25 degC measured after 4 weeks.
Test [6] deals with Amaranthus viridis. Put plainly: Herbicidal activity against Amaranthus viridis assessed as seedling death under green house at 0.5 kg/ha at 25 degC measured after 4 weeks.
Another test relates to Persicaria lapathifolia. Description: Herbicidal activity against Persicaria lapathifolia assessed as seedling death under green house at 0.5 kg/ha at 25 degC measured after 4 weeks.

Each structure is given as a SMILES string. Calls of active or inactive are those of the source. The calls are words filed in the database; no cut-off is given here.

As for `CCCN(C(=O)COc1onc(C(F)(F)F)c1C)c1ccccc1`, the outcome in the test with Echinochloa crus-galli [1], with Echinochloa crus-galli [2] and in the test with Digitaria ciliaris [3] was Active.

For `COc1ccccc1N(C)C(=O)COc1onc(C(F)(F)F)c1C`, the outcome in the test with Echinochloa crus-galli [1], in the test on Digitaria ciliaris [4], with Echinochloa crus-galli [2] and in the test with Digitaria ciliaris [3] was Active.

With `CCc1cccc(N(C)C(=O)COc2onc(C(F)(F)F)c2C)c1`, the outcome in the test with Echinochloa crus-galli [1], in the test on Digitaria ciliaris [4], with Amaranthus viridis [5], in the test on Echinochloa crus-galli [2], in the test with Digitaria ciliaris [3] and with Amaranthus viridis [6] was Active.

For the molecule `CCC(C)N(C)C(=O)COc1onc(C(F)(F)F)c1C` (stereo not given), the outcome in the test on Echinochloa crus-galli [1], in the test on Digitaria ciliaris [4] and in the test on Digitaria ciliaris [3] was Active.

As for `Cc1c(C(F)(F)F)noc1OCC(=O)N(C)c1cccc(Br)c1`, the result with Echinochloa crus-galli [1], in the test on Digitaria ciliaris [4], with Echinochloa crus-galli [2] and in the test with Digitaria ciliaris [3] was Active.

Regarding `Cc1c(C(F)(F)F)noc1OCC(=O)N(c1ccccc1)C(C)C`, the result with Echinochloa crus-galli [1], with Digitaria ciliaris [4], in the test on Echinochloa crus-galli [2] and with Digitaria ciliaris [3] was Active.

Regarding `CCCCN(C)C(=O)COc1onc(C(F)(F)F)c1C`, the result with Persicaria lapathifolia was inactive.

Consider `COc1cccc(N(C)C(=O)COc2onc(C(F)(F)F)c2C)c1`, for which the outcome in the test on Echinochloa crus-galli [1], in the test with Digitaria ciliaris [4], in the test on Amaranthus viridis [5], with Echinochloa crus-galli [2] and with Digitaria ciliaris [3] was Active.

On to `Cc1ccccc1N(C)C(=O)COc1onc(C(F)(F)F)c1C`, for which the result in the test with Echinochloa crus-galli [1], with Digitaria ciliaris [4], with Amaranthus viridis [5], with Echinochloa crus-galli [2], in the test with Digitaria ciliaris [3] and in the test with Amaranthus viridis [6] was Active.

Consider `Cc1cccc(N(C)C(=O)COc2onc(C(F)(F)F)c2C)c1C`, for which the result with Echinochloa crus-galli [1], with Digitaria ciliaris [4], in the test on Echinochloa crus-galli [2] and in the test with Digitaria ciliaris [3] was Active. For the same molecule, in the test on Persicaria lapathifolia, the result was inactive.

On to `CCN(C(=O)COc1onc(C(F)(F)F)c1C)c1ccccc1`, for which the result in the test on Echinochloa crus-galli [1], in the test with Digitaria ciliaris [4], with Echinochloa crus-galli [2] and in the test with Digitaria ciliaris [3] was Active.

With `Cc1ccc(N(C)C(=O)COc2onc(C(F)(F)F)c2C)cc1`, the result with Echinochloa crus-galli [1], with Digitaria ciliaris [4], in the test with Amaranthus viridis [5], in the test on Echinochloa crus-galli [2] and in the test with Digitaria ciliaris [3] was Active.

On to `Cc1c(C(F)(F)F)noc1OCC(=O)N(C)c1ccc(F)cc1`, for which the result in the test on Echinochloa crus-galli [1], in the test on Digitaria ciliaris [4], in the test with Echinochloa crus-galli [2] and in the test with Digitaria ciliaris [3] was Active.

Turning to `Cc1c(Cl)cccc1N(C)C(=O)COc1onc(C(F)(F)F)c1C`, the result with Echinochloa crus-galli [1], with Digitaria ciliaris [4], with Echinochloa crus-galli [2] and with Digitaria ciliaris [3] was Active.

Take `Cc1c(C(F)(F)F)noc1OCC(=O)N(C)c1cccc(Cl)c1`: the outcome in the test with Echinochloa crus-galli [1], with Digitaria ciliaris [4], with Echinochloa crus-galli [2] and with Digitaria ciliaris [3] was Active.

Take `Cc1c(C(F)(F)F)noc1OCC(=O)N(C)CC(C)C`: the outcome in the test on Digitaria ciliaris [4], in the test on Echinochloa crus-galli [2] and in the test on Digitaria ciliaris [3] was Active.
